Results as given in publication PMC9106035, “Synthesis, X-ray Structure and Biological Studies of New Self-Assembled Cu(II) Complexes Derived from s-Triazine Schiff Base Ligand” (Molecules, 2022).
Values after ≈ are worked out from the molar mass of the structure shown.

Key:
[1] = test system: normal human lung fibroblast MRC-5 cells; test: Cytotoxic activity on normal cells, MTT viability assay; assay type: cell-based; conditions: Homo sapiens, MRC5, MRC-5, Table S10, read-out: Inhibitory %
Procedure: In this regard, the selectivity index (SI) was calculated as the ratio of cytotoxic effect on the normal cell line to the cytotoxic effect on the cancer cell line.
(§1) Method S4 Evaluation of Cytotoxic activity
(§2) The cells were propagated in Dulbecco’s modified Eagle’s medium (DMEM) supplemented with 10% heat-inactivated fetal bovine serum, 1 % L-glutamine, HEPES buffer and 50µg/mL Gentamycin. All cells were maintained at 37 °C in a humidified atmosphere with 5% CO2 and were subcultured tw o times a week.
(§3) Cytotoxicity evaluation using viability assay
(§4) For cytotoxicity assay, the cells were seeded in 96-well plate at a cell concentration of 1×10^4 cells per well in 100µl of growth medium. Fresh medium containing different concentrations of the test sample was added after 24 h of seeding. Serial two-fold dilutions of the tested chemical compound were added to confluent cell monolayers dispensed into 96-well, flat-bottomed microtiter plates (Falcon, NJ, USA) using a multichannel pipette. The microtiter plates were incubated at 37 °C in a humidified incubator with 5% CO2 for a period of 24 h. Three wells were used for each concentration of the test sample. Control cells were incubated without test sample and with or without DMSO. The little percentage of DMSO present in the […]
(§5) cells for at 37°C, for 24 h, the viabl e cells yield was determined by the MTT test.
(§6) Briefly, the media was removed from the 96 well plate and replaced with 100 µL of fresh culture DMEM m edium without phenol red then 10 µL of the 12 mM MTT stock solution (5 mg of MTT in 1 mL of PBS) to each well including the untreated controls. The 96 well plates were then incubated at 37°C and 5% CO2 for 4 hours. An 85 µL aliquot of the media was removed from t he wells, and 50 µL of DMSO was added to each well and mixed thoroughly with the pipette and incubated at 37°C for 10 min. Then, the optical density was measured at 590 nm with the microplate reader (SunRise, TECAN, Inc, USA) to determine the number of viable cells and the percentage of viability was calculat ed as [(ODt/ODc)]x100% where ODt i s the mean optical density of wells treated with the tested s ample and ODc is the mean optical density of untreated cells. The relation between surviving cells and drug concentration is plotted to get the survival curve of each tumor cell line after treatment with the specified compound. The 50% inhibitory concentration (IC50), the concentration required to cause t oxic effects in 50% of intact cells, was estimated from graphic plots of the dose response curve for each conc. using Graphpad Prism software (San Diego, […]

[2] = test system: lung carcinoma A-549 cell line; test: Anticancer activity, MTT viability assay; assay type: cell-based
Procedure: The studied compounds were examined for their anticancer activity against the lung carcinoma A-549 cell line.
as §1, §2, §3, §4, §5, §6

[3] = DPPH radical scavenging assay; assay type: biochemical
Procedure: The studied Cu(II) complexes and the free ligands were assessed for their antioxidant activity levels using an α,α-diphenyl-β-picrylhydrazyl (DPPH) scavenging assay, and the results are given in Table 7. […] The results indicated better antioxidant activity for DMAT than for DMOHT, indicating the effect of the substituent at the phenyl moiety on the antioxidant activity level of the free ligand. […] On the other hand, the Cu(II) complexes have improved levels of antioxidant activity compared to the free ligands.
Method S3 DPPH Radical Scavenging Activity:
Freshly prepared (0.004 %w/v) methanol solution of 2,2-diphenyl-1-pi crylhydrazyl (DPPH) radical was prepared and stored at 10 °C in dark place. A methanolic solution of the test compound was prepared using the same procedure. A 40 uL aliquot of the methanol solution was added to 3mL of DPPH solution. Absorbance measurements were recorded immediately with a UV-visible spectrophotometer (Milton Roy, Spectronic 1201). The decrease in absorbance at 515 nm was determined continuously, with data being recorded at 1 min intervals until the absorbance stabilized (16 min). The absorbance of the DPPH radical without antioxidant (control) and the reference compound ascorbic acid were also measured.
All the determinations were performed in three replicates and averaged. The percentage inhibition (PI) of the DPPH radical was calculated according to the […]
PI = [{(AC- AT)/ AC} x 100] (1)
Where AC = Absorbance of the control at t = 0 min and AT = absorbance of the sample+DPPH at t = 16 min. The 50% inhibitory concentration (IC50), the concentration required t o inhibit DPPH radical by 50%, was estimated from graphic plots of the dose respons e curve.

With `CC(=NNc1nc(N2CCOCC2)nc(N2CCOCC2)n1)c1ccccc1N` [DMAT, 2-(1-(2-(4,6-dimorpholino-1,3,5-triazin-2-yl)hydrazono)ethyl)aniline] as the molecule, how does the inhibition at 2.5 µM ([1]; sample conc. 2.5 µM) read?
The inhibition at 2.5 µM was 0%.

And the inhibition at 5 µM ([1]; sample conc. 5.0 µM)?
The inhibition at 5 µM was 0%.

And the inhibition at 9.8 µM ([1]; sample conc. 9.8 µM)?
The inhibition at 9.8 µM was 0%.

And the inhibition at 19.6 µM ([1]; sample conc. 19.6 µM)?
Its inhibition at 19.6 µM is 0%.

What about the inhibition at 39.1 µM ([1]; sample conc. 39.1 µM) of the same molecule?
Its inhibition at 39.1 µM is 0%.

And the inhibition at 78.4 µM ([1]; sample conc. 78.4 µM)?
Its inhibition at 78.4 µM is 0%.

And the inhibition at 156.8 µM ([1]; sample conc. 156.8 µM)?
Its inhibition at 156.8 µM is 0.15%.

And the inhibition at 313.7 µM ([1]; sample conc. 313.7 µM)?
The inhibition at 313.7 µM was 10.7%.

What about the inhibition at 627.4 µM ([1]; sample conc. 627.4 µM) of the same molecule?
Its inhibition at 627.4 µM is 46.1%.

And the inhibition at 1254.8 µM ([1]; sample conc. 1254.8 µM)?
Its inhibition at 1254.8 µM is 73.9%.

What about the “SI = CC50/IC50” value ([2]; CC50 (MRC-5) / IC50 (A-549)) of the same molecule?
The value was 1.30.

And the viability at 2.5 µM ([2]; Homo sapiens, A549, A-549, sample conc. 2.5 µM, Table S5)?
The viability at 2.5 µM was 100%.

What about the inhibition at 2.5 µM ([2]; Homo sapiens, A549, A-549, sample conc. 2.5 µM, Table S5, read-out: Inhibitory %) of the same molecule?
Its inhibition at 2.5 µM is 0%.

What about the viability at 5 µM ([2]; Homo sapiens, A549, A-549, sample conc. 5.0 µM, Table S5) of the same molecule?
The viability at 5 µM was 100%.

And the inhibition at 5 µM ([2]; Homo sapiens, A549, A-549, sample conc. 5.0 µM, Table S5, read-out: Inhibitory %)?
Its inhibition at 5 µM is 0%.

What about the viability at 9.8 µM ([2]; Homo sapiens, A549, A-549, sample conc. 9.8 µM, Table S5) of the same molecule?
The viability at 9.8 µM was 100%.

And the inhibition at 9.8 µM ([2]; Homo sapiens, A549, A-549, sample conc. 9.8 µM, Table S5, read-out: Inhibitory %)?
The inhibition at 9.8 µM was 0%.

What about the viability at 19.6 µM ([2]; Homo sapiens, A549, A-549, sample conc. 19.6 µM, Table S5) of the same molecule?
The viability at 19.6 µM was 100%.

What about the inhibition at 19.6 µM ([2]; Homo sapiens, A549, A-549, sample conc. 19.6 µM, Table S5, read-out: Inhibitory %) of the same molecule?
The inhibition at 19.6 µM was 0%.

What about the viability at 39.1 µM ([2]; Homo sapiens, A549, A-549, sample conc. 39.1 µM, Table S5) of the same molecule?
The viability at 39.1 µM was 100%.

And the inhibition at 39.1 µM ([2]; Homo sapiens, A549, A-549, sample conc. 39.1 µM, Table S5, read-out: Inhibitory %)?
The inhibition at 39.1 µM was 0%.

And the viability at 78.4 µM ([2]; Homo sapiens, A549, A-549, sample conc. 78.4 µM, Table S5)?
Its viability at 78.4 µM is 100%.

And the inhibition at 78.4 µM ([2]; Homo sapiens, A549, A-549, sample conc. 78.4 µM, Table S5, read-out: Inhibitory %)?
Its inhibition at 78.4 µM is 0%.

And the viability at 156.8 µM ([2]; Homo sapiens, A549, A-549, sample conc. 156.8 µM, Table S5)?
The viability at 156.8 µM was 98%.

What about the inhibition at 156.8 µM ([2]; Homo sapiens, A549, A-549, sample conc. 156.8 µM, Table S5, read-out: Inhibitory %) of the same molecule?
Its inhibition at 156.8 µM is 1.96%.

What about the viability at 313.7 µM ([2]; Homo sapiens, A549, A-549, sample conc. 313.7 µM, Table S5) of the same molecule?
The viability at 313.7 µM was 82.7%.

And the inhibition at 313.7 µM ([2]; Homo sapiens, A549, A-549, sample conc. 313.7 µM, Table S5, read-out: Inhibitory %)?
The inhibition at 313.7 µM was 17.3%.

And the viability at 627.4 µM ([2]; Homo sapiens, A549, A-549, sample conc. 627.4 µM, Table S5)?
The viability at 627.4 µM was 39.6%.

What about the inhibition at 627.4 µM ([2]; Homo sapiens, A549, A-549, sample conc. 627.4 µM, Table S5, read-out: Inhibitory %) of the same molecule?
The inhibition at 627.4 µM was 60.4%.

And the viability at 1254.8 µM ([2]; Homo sapiens, A549, A-549, sample conc. 1254.8 µM, Table S5)?
The viability at 1254.8 µM was 17.6%.

And the inhibition at 1254.8 µM ([2]; Homo sapiens, A549, A-549, sample conc. 1254.8 µM, Table S5, read-out: Inhibitory %)?
Its inhibition at 1254.8 µM is 82.4%.

What about the IC50 ([2]; Homo sapiens, A549, A-549 cells, 24 h, MTT) of the same molecule?
Its IC50 is 551 µM.

What about the “DPPH Scavenging %” value ([3]; Conc. 2.5 μg/mL) of the same molecule?
Its value is 20.79%.

And the “DPPH Scavenging %” value ([3]; Conc. 5 μg/mL)?
The value was 28.65%.

And the “DPPH Scavenging %” value ([3]; Conc. 10 μg/mL)?
The value was 35.17%.

And the “DPPH Scavenging %” value ([3]; Conc. 20 μg/mL)?
The value was 54.23%.

What about the “DPPH Scavenging %” value ([3]; Conc. 40 μg/mL) of the same molecule?
Its value is 70.89%.

And the “DPPH Scavenging %” value ([3]; Conc. 80 μg/mL)?
Its value is 79.28%.

And the “DPPH Scavenging %” value ([3]; Conc. 160 μg/mL)?
The value was 86.59%.

And the “DPPH Scavenging %” value ([3]; Conc. 320 μg/mL)?
Its value is 91.37%.

What about the “DPPH Scavenging %” value ([3]; Conc. 640 μg/mL) of the same molecule?
Its value is 94.08%.

And the “DPPH Scavenging %” value ([3]; Conc. 1280 μg/mL)?
The value was 95.31%.

And the “IC50 (DPPH scavenging)” value ([3]; antioxidant activity)?
Its value is 17.83 ± 0.65 mg/L (≈ 44.7 µM).
